Like-named read-outs stand apart in the source and are kept apart here.
Experiments:
[1] = system: acute myeloid leukemia cell line MOLM13; experiment: Growth of cancer cells, Cell Titer-Glo GI50, MOLM13; format: cell-based
[2] = system: acute myeloid leukemia cell line MOLM14; experiment: Growth of cancer cells, Cell Titer-Glo GI50, MOLM14; format: cell-based; conditions: read-out: GI50 MOLM 14
[3] = target: CDK9/CyclinT1 protein (Homo sapiens (Human), UniProt P50750); experiment: Enzyme activity assay of CDK9 protein inhibition in vitro, CDK9/CyclinT1
CDK9/CyclinT1 protein, sequence (P50750 whole entry): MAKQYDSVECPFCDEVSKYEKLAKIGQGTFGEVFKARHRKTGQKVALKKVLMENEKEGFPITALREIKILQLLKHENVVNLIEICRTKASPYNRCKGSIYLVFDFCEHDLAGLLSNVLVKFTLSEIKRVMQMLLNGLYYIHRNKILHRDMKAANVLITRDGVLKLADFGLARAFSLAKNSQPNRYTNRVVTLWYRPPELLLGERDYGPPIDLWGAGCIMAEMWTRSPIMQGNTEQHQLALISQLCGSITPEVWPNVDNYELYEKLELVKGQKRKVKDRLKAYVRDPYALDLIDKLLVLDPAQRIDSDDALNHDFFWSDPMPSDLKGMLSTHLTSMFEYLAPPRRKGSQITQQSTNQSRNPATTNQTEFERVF
CDK9/CyclinT1 protein, sequence (O60563 whole entry partner): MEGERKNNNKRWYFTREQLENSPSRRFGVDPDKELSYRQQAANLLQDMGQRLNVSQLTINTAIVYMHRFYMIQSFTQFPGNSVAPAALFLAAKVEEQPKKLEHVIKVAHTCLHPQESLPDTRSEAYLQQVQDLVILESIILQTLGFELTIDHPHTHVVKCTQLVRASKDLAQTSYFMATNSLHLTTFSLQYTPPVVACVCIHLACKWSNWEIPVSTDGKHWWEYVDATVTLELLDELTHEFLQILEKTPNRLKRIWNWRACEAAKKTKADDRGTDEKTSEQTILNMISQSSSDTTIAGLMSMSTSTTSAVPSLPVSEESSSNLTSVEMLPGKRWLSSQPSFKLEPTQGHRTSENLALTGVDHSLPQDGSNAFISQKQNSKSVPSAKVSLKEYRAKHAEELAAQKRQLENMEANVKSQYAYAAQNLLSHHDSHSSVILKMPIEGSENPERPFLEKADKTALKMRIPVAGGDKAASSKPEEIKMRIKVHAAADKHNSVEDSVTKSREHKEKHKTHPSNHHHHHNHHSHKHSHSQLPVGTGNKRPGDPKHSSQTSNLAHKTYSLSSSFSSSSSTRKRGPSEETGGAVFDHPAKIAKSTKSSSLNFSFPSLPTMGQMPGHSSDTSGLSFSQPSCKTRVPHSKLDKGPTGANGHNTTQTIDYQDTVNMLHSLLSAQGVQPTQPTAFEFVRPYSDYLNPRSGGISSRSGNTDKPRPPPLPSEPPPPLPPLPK

[4] = system: acute myeloid leukemia cell line OCI-AML-3; experiment: Growth of cancer cells, Cell Titer-Glo GI50, OCI-AML-3; format: cell-based; conditions: Homo sapiens, read-out: GI50 AML3
[5] = system: acute myeloid leukemia cell line MV4-11; experiment: Growth of cancer cells, Cell Titer-Glo GI50, MV4-11; conditions: read-out: GI50 MV4-11
[6] = system: human chronic myeloid leukemia cell K562; experiment: Growth of cancer cells, Cell Titer-Glo GI50, K562; format: cell-based; conditions: read-out: GI50 K562
[7] = system: histiocytic lymphoma U-937; experiment: Growth of cancer cells, Cell Titer-Glo GI50, U937; format: cell-based; conditions: Homo sapiens, read-out: GI50 U937
[8] = system: human ovarian granulosa tumor cell COV434; experiment: Growth of cancer cells, Cell Titer-Glo GI50, COV434; format: cell-based; conditions: Homo sapiens, COV434, 72 h, read-out: GI50 COV434
[9] = target: CDK9 (Homo sapiens (Human), UniProt P50750); experiment: Binding activity of compound and CDK9, split luciferase system (C37-CL / CDK9-NL) in HEK-293T cells; format: cell-based
CDK9, sequence (P50750 whole entry, the tested form may be a part): as the sequence (P50750 whole entry) above
Text: The plasmid of split luciferase system was constructed by molecular cloning technology. The N-terminal domain (NLuc) and C-terminal domain (CLuc) of luciferase were respectively cloned and inserted into the vector PCDNA3 to construct NLuc-PCDNA3 and CLuc-PCDNA3 vectors, and the polyclonal sites were reserved at both ends of the sequence. Then CDC37 and CDK9 were cloned into the corresponding vectors to construct C37-CL and CDK9-NL vectors. C37-CL plasmid sequence is shown in SEQ ID NO. 1. CDK9-NL plasmid sequence is shown in SEQ ID NO. 2.
The mixed transfection complex was added to the 10 cm cell culture dish and cultured at 37° C. and 5% CO2 for 24 hours. […] After counting, the transfected cells were placed in a 96-well white Corning cell culture plate (purchased from Corning, U.S.) with 100 μL, 5000 cells/well. After 12 hours, the medium was removed from the 96-well plate and 100 μL culture medium containing corresponding concentration of the testing compound was added, which was cultured continuously for 12 hours. After 12 hours, 20 μL Luciferase-Glo (purchased from Promega, U.S.) testing reagent was added to each well. After mixing, the […] value was detected using a microplate reader.

[10] = system: MOLM13 drug resistant strain MOLM13 BR1; experiment: Growth of drug resistant strain MOLM13 BR1, Cell Titer-Glo GI50; format: cell-based; conditions: 72 hours
[11] = Homo sapiens, MOLM-13, incubated for 72 hours, Cell Titer-Glo, Table 1, read-out: GI50 MOLM 13
[12] = Homo sapiens, MOLM-14, incubated for 72 hours, Cell Titer-Glo
[13] = Homo sapiens, MOLM-13, 72 h, read-out: GI50 MOLM 13
[14] = incubated for 72 hours, Cell Titer-Glo
[15] = Homo sapiens, K562, incubated for 72 hours, Cell Titer-Glo
[16] = U-937, incubated for 72 hours, Cell Titer-Glo
[17] = Homo sapiens, MOLM-13, BAY1251152-resistant MOLM13 strain
[18] = Homo sapiens, MOLM-13, incubated for 72 hours, Cell Titer-Glo, Table 2, read-out: GI50 MOLM13

GI50 [1, 11] [nM] | GI50 [2, 12] [nM] | IC50 [3] [nM] | GI50 ([5]; Homo sapiens, MV4-11, 72 h) [nM] | GI50 [6, 15] [nM] | Structure (SMILES) | further results
28 | 41 | 13 |  |  | COCCN[C@H]1CC[C@H](Nc2ncc(Cl)c(-c3ccc4c(c3)C(C)(C)NC4=O)n2)CC1 [Compound 22, 5-(5-chloro-2-(((1r,4r)-4-((2-methoxyethyl)amino)cyclohexyl)amino)pyrimidin-4-yl)-3,3-dimethylisoindoline-1-one] | 
35 | 59 | 27 | 57 | 942 | CN(C)S(=O)(=O)c1cccc(Nc2nccc(-c3ccc4c(c3)C(C)(C)CNC4=O)n2)c1 [Compound 29, 3-((4-(4,4-dimethyl-1-oxo1,2,3,4-tetrahydroisoquinolin-6-yl)pyrimidin-2-yl)amino)-N,N-dimethylbenzenesulfonamide] | GI50 [4, 14]: 153 nM; GI50 [7, 16]: 186 nM
5 | 16 |  | 13 | 95 | CC1(C)CNC(=O)c2ccc(-c3ccnc(Nc4cccc(S(C)(=N)=O)c4)n3)cc21 (stereo not shown) [Compound 38] | 
3 | 5.8 | 6.6 | 1.7 | 25 | CN1CCN(c2ccc(Nc3nccc(-c4ccc5c(c4)C(C)(C)CNC5=O)n3)cc2)CC1 [Compound 40, 4,4-dimethyl-6-(2-((4-(4-methylpiperazin-1-yl)phenyl)amino)pyrimidin-4-yl)-3,4-dihydroisoquinolin-1(2H)-one] | GI50 [4, 14]: 5 nM; IC50 [9]: 67 nM; GI50 [10, 17]: 4.39 nM; GI50 [7, 16]: 4.6 nM
11 | 25 | 2.5 | 6.6 | 84 | CN1CCC(NC(=O)c2cc(Nc3nccc(-c4ccc5c(c4)C(C)(C)CNC5=O)n3)ccc2F)CC1 [Compound 41] | GI50 [4, 14]: 23 nM; IC50 [9]: 114 nM; GI50 [7, 16]: 13 nM
30 | 96 |  |  |  | COc1ccc(Nc2nccc(-c3ccc4c(c3)C(C)(C)CNC4=O)n2)cc1CS(C)(=O)=O [Compound 45, 6-(2-((4-methoxy-3-((methylsulfonyl)methyl)phenyl)amino)pyrimidin-4-yl)-4,4-dimethyl-3,4-dihydroisoquinolin-1(2H)-one] | 
 | 15 |  |  |  | CC1(C)NC(=O)c2ccc(-c3nc(Nc4ccc(F)c(CS(C)(=O)=O)c4)ncc3Cl)cc21 [Compound 51, 5-(5-chloro-2-((4-fluoro-3-((methylsulfonyl)methyl)phenyl)amino)pyrimidin-4-yl)-3,3-dimethylisoindoline-1-one] | 
19 | 44 |  |  |  | CC1(C)CNC(=O)c2ccc(-c3nc(Nc4ccc(F)c(C5(S(C)(=O)=O)CC5)c4)ncc3F)cc21 [Compound 63, 6-(5-fluoro-2-((4-fluoro-3-(1-(methylsulfonyl)cyclopropyl)phenyl)amino)pyrimidin-4-yl)-4,4-dimethyl-3,4-dihydroisoquinolin-1(2H)-one] | 
< 1 | 5.5 | 15 |  |  | CN1CCN(c2cc(Nc3ncc(F)c(-c4ccc5c(c4)C(C)(C)CNC5=O)n3)ccc2F)CC1 [Compound 72, 6-(5-fluoro-2-((4-fluoro-3-(4-methylpiperazin-1-yl)phenyl)amino)pyrimidin-4-yl)-4,4-dimethyl-3,4-dihydroisoquinolin-1(2H)-one] | 
< 1 | < 1 |  |  | 26 | CN1CCN(c2cc(F)cc(Nc3ncc(F)c(-c4ccc5c(c4)C(C)(C)CNC5=O)n3)c2)CC1 [Compound 73, 6-(5-fluoro-2-((3-fluoro-5-(4-methylpiperazin-1-yl)phenyl)amino)pyrimidin-4-yl)-4,4-dimethyl-3,4-dihydroisoquinolin-1(2H)-one] | GI50 [1, 18]: 1.64 nM; GI50 [10, 17]: 0.345 nM
33 | 110 |  |  |  | CN1CCN(c2cc(Nc3ncc(Cl)c(-c4ccc5c(c4)C(C)(C)CNC5=O)n3)ccc2F)CC1 [Compound 75, 6-(5-chloro-2-((4-fluoro-3-(4-methylpiperazin-1-yl)phenyl)amino)pyrimidin-4-yl)-4,4-dimethyl-3,4-dihydroisoquinolin-1(2H)-one] | 
3.3 | 7.2 |  |  | 15 | CC(C)N1CCN(c2cc(Nc3ncc(F)c(-c4ccc5c(c4)C(C)(C)CNC5=O)n3)ccc2F)CC1 [Compound 80, 6-(5-fluoro-2-((4-fluoro-3-(4-isopropylpiperazin-1-yl)phenyl)amino)pyrimidin-4-yl)-4,4-dimethyl-3,4-dihydroisoquinolin-1(2H)-one] | GI50 [1, 18]: 11.6 nM; GI50 [10, 17]: 12.3 nM
 |  |  |  |  | CC(=O)N[C@@H]1CCC[C@H](C(=O)Nc2cc(-c3ccc4c(c3)C(C)(C)CNC4=O)c(Cl)cn2)C1 [Compound 96, (1S,3R)-3-acetylamino-N-(5-chloro-4-(4,4-dimethyl-1-oxo-1,2,3,4-tetrahydroisoquinolin-6-yl)pyridin-2-yl)cyclohexyl-1-formamide] | GI50 ([1]; incubated for 72 hours, Cell Titer-Glo, Table 1, read-out: GI50 MOLM 13): 8 nM; GI50 [5, 14]: 9 nM; GI50 [6, 14]: 72 nM; GI50 [2, 14]: 17 nM; GI50 ([10]; BAY1251152-resistant MOLM13 strain): 5.6 nM; IC50 ([3]; read-out: CDK9/CyclinT1 Protein activity (IC50)): 0.52 nM
 | 10 | 0.9 | 34 |  | CC1(C)CNC(=O)c2ccc(-c3ccnc(N[C@@H]4CCCN(S(C)(=O)=O)C4)n3)cc21 [Compound 104] | 
 | 43 | 15 | 82 |  | CC1(C)CNC(=O)c2ccc(-c3ccnc(NC4CCN(S(C)(=O)=O)CC4)n3)cc21 [Compound 105, 4,4-dimethyl-6-(2-((1-(methylsulfonyl)piperidin-4-yl)amino)pyrimidin-4-yl)-3,4-dihydroisoquinolin-1(2H)-one] | 
 |  | 10.4 |  |  | CC1(C)CNC(=O)c2ccc(-c3ccnc(N[C@H]4CC[C@H](CC(=O)O)CC4)n3)cc21 [Compound 106] | 

Structure (SMILES) | GI50 [1, 11] [nM] | GI50 [2, 12] [nM] | IC50 [3] [nM] | GI50 ([5]; Homo sapiens, MV4-11, 72 h) [nM] | GI50 [6, 15] [nM] | further results
CC1(C)CNC(=O)c2ccc(-c3ccnc(Nc4cccc(CS(C)(=O)=O)c4)n3)cc21 [Compound 28, 4,4-dimethyl-6-(2-((3-((methylsulfonyl)methyl)phenyl)amino)pyrimidin-4-yl)-3,4-dihydroisoquinolin-1(2H)-one] |  |  |  | 2 |  | GI50 [1, 13]: 1 nM; GI50 ([4]; 72 h): 2 nM; GI50 ([6]; Homo sapiens, K562, 72 h): 10 nM; GI50 ([2]; Homo sapiens, MOLM-14, 72 h): 2 nM; GI50 ([7]; U-937, 72 h): 2 nM
CN1CCC(NC(=O)c2cccc(Nc3nccc(-c4ccc5c(c4)C(C)(C)CNC5=O)n3)c2)CC1 [Compound 33, 3-((4-(4,4-dimethyl-1-oxo-1,2,3,4-tetrahydroisoquinolin-6-yl)pyrimidin-2-yl)amino)-N-(1-methylpiperidin-4-yl)benzamide] | 10 |  |  | 6 | 77 | GI50 [4, 14]: 48 nM; GI50 [8]: 8 nM; GI50 [7, 16]: 63 nM
CC1(C)CNC(=O)c2ccc(-c3ccnc(Nc4ccc(F)c(NS(C)(=O)=O)c4)n3)cc21 [Compound 34, N-(5-((4-(4,4-dimethyl-1-oxo-1,2,3,4-tetrahydroisoquinolin-6-yl)pyrimidin-2-yl)amino)-2-fluorophenyl)methanesulfamide] | 11 |  | 6.1 | 4 | 24 | GI50 [4, 14]: 8 nM; GI50 [8]: 9 nM; IC50 [9]: 50 nM; GI50 [7, 16]: 7 nM
CC1(C)CNC(=O)c2ccc(-c3ccnc(Nc4ccc(F)c(CS(C)(=O)=O)c4)n3)cc21 [Compound 36, 6-(2-((4-fluoro-3-((methylsulfonyl)methyl)phenyl)amino)pyrimidin-4-yl)-4,4-dimethyl-3,4-dihydroisoquinolin-1(2H)-one] |  |  |  | 3 |  | GI50 [1, 13]: < 1 nM; GI50 ([6]; Homo sapiens, K562, 72 h): 9 nM; GI50 ([2]; Homo sapiens, MOLM-14, 72 h): 2 nM

Source: US20230416221A1, “DIHYDROISOQUINOLINONE AND ISOINDOLINONE DERIVATIVES AND USES THEREOF” (HEFEI INSTITUTES OF PHYSICAL SCIENCE, CHINESE ACADEMY OF …, priority 2020, published 2023)
